Measured values taken from US20250145600A1, “2-((4-((S)-2-(4-CHLORO-2-FLUOROPHENYL)-2-METHYLBENZO[D][1,3]DIOXOL-4-YL)PIPERIDIN-1-YL)METHYL)-1-(((S)-OXETAN-2-YL)METHYL)-1H-IMIDAZOLE DERIVATIVES AS ACTIVATORS OF THE GLP1 RECEPTOR FOR THE TREATMENT OF OBESITY” (Novartis AG, priority 2022, published 2025).

Target: human GLP1R (hGLP1R) (Homo sapiens, UniProt P43220)
Test: Human GLP1R β-arrestin recruitment assay (PathHunter)
Format: cell-based
Set-up: insert synthesized by GeneArt 93-0164 (CHO-K1-EA parental cells); 93-0491 (pCMV PK vector bundle)
Conditions: CHO-hGLP1R-β-arrestin cells
Method: Compounds of formula (I) according to the invention were tested in the following cellular assays that measure the intracellular cAMP concentration, beta-arrestin recruitment and receptor internalization. The cAMP is generated by the activation of GLP1R. The extent to which the GLP1R is internalized into the cell and away from the plasma membrane following activation is also shown in Table 2. EC50 for each assay is defined as the concentration of the compound that leads to half of the maximum response (after baseline correction). Emax is defined as the maximum response observed for the test compound, normalized to the maximum response observed for the endogenous ligand (GLP1(7-36)) to GLP1R.
Human GLP1R β-Arrestin Recruitment Assay
The extent to which agonists recruited β-arrestin was measured using the PathHunter® β-arrestin assay (DiscoverX). This assay measures binding of β-arrestin to the receptor using an enzyme complementation approach. […] When β-arrestin is recruited to the receptor the enzyme becomes active and generates luminescence in the presence of a chemiluminescent substrate (PathHunter® Detection Kit, DiscoverX cat #93-0001). Luminescence can be measured on a relevant detector. CHO-hGLP1R-β-arrestin cells stably overexpressing hGLP1R with Prolink tag and β-arrestin with EA tag were seeded at 20 μL per well in white 384-well poly-D-Lysine coated plates (Greiner Bio One, cat #781945) in Plating Reagent 2 (DiscoverX, cat #93-0563R^2A), and incubated overnight at 37° C., 5% CO2 with humidity. The following day, agonists were prepared at 5 times the final required concentration. To generate triplicate dose response curves, compounds were serially diluted 3-fold in assay buffer (HBSS, 10 mM Hepes and 0.1% BSA), then added to the cell assay plate to a final volume of 25 μL and final top concentrations starting at 30 μM. In the same plate and assay buffer as the tested compounds, were EC100 control wells containing GLP1 (7-36) peptide (Bachem, cat #H-6795) at a final concentration of 1 μM and also EC0 control wells containing no compound. The plate was incubated at 37° C., 5% CO2 with humidity for 2 h after adding the compounds to the cells. Then the detection reagent was prepared (19 parts cell assay buffer, 5 parts substrate reagent 1 and 1 part substrate reagent 2 as per manufacturers recommendations, DiscoverX cat #93-0001), and 12 μL were added per well to the cell assay plate. The plate was incubated for an additional hour in the dark at RT. Luminescence was then measured with an Envision 2104 Multilabel reader with “TRF Light Unit, 337 nm” (Perkin Elmer) using the Ultra-Sensitive protocol setting “384-well US luminescence detector” with the 384-well luminescence aperture, 0.1 sec per well. β-arrestin recruitment was calculated and expressed as percent of the GLP1 (7-36) EC100 control wells: [(sample signal−mean EC0 signal)/(mean EC100 of GLP1 (7-36) signal−mean EC0 signal)]*100 using Microsoft Excel. Curve fitting for EC50 determinations was performed using GraphPad Prism. The 4-parameter logistic model, Hill slope was used: Y=Bottom+(Top−Bottom)/(1+10^((Log EC50−X)*Hill Slope)), where Y is the functional response; X is the compound concentration; bottom is A0 or the minimum value (at 0 dose); top is Ainf or the maximum value (at infinite dose); EC50 is the point of inflection (i.e. the point on the sigmoid shaped curve halfway between A0 and Ainf). The EC50 value was calculated in μM. Emax is the maximal activity detected within the concentration range, derived from the fitted curve relative to GLP1(7-36).
PathHunter CHO-K1-EA parental cells (DiscoverX, cat #93-0164) were plated at a density of 2×10^6 cells per T75 cm^2 flask in 22 mL of complete medium (AssayComplete Cell Culture kit 107, DiscoverX, cat #92-3107G). The following day, the medium was replaced with 22 mL of fresh medium with no antibiotics and cells were transfected as follows. […]

Sequence of human GLP1R (hGLP1R) (P43220 24-463): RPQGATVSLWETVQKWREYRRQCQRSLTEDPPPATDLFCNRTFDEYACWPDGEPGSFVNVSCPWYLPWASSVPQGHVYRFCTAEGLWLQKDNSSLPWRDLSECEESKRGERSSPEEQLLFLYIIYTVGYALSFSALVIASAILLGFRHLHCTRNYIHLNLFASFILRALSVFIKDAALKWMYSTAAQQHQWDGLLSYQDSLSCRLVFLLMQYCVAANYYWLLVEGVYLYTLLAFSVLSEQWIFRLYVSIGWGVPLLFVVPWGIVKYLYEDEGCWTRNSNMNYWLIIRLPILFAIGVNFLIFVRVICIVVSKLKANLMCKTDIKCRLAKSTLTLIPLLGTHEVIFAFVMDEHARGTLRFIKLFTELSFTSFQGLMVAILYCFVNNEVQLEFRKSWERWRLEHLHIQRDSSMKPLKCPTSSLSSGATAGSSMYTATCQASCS

Cc1c(-c2ccc(C(=O)O)o2)nc(CN2CCC(c3cccc4c3O[C@@](C)(c3ccc(Cl)cc3F)O4)CC2)n1C[C@@H]1CCO1 [Compound C-24, 5-(2-((4-((S)-2-(4-chloro-2-fluorophenyl)-2-methylbenzo[d][1,3]dioxol-4-yl)piperidin-1-yl)methyl)-5-methyl-1-(((S)-oxetan-2-yl)methyl)-1H-imidazol-4-yl)furan-2-carboxylic acid]
EC50 (2 h at 37° C., top concentration 30 μM, read-out: Beta-Arrestin assay EC50 Mean): > 30 µM | Emax (relative to GLP1(7-36), read-out: Beta-Arrestin assay Emax (%)): 1%
